The target in this experiment is human F508del-CFTR (Homo sapiens, UniProt P13569, DEL508-508). The experiment can be described thus: F508del-CFTR cell surface expression (corrector activity), DiscoveRx ß-galactosidase complementation chemiluminescence assay in recombinant U2OS cell line.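 As to all read-outs here: U2OS cells co-expressing ProLink-tagged F508del-CFTR and a membrane-anchored enzyme acceptor, where more surface CFTR restores β-galactosidase activity measured by chemiluminescence.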 As to conditions: for EC50: EC50, F508del-CFTR cell surface expression, U2OS cells, 16h compound incubation, geomean values; for Emax: U2OS, in relation to Emax of corrector lumacaftor (=100%), arithmetic mean values.
human F508del-CFTR, sequence (P13569 with tags, fused parts or gaps DEL508-508): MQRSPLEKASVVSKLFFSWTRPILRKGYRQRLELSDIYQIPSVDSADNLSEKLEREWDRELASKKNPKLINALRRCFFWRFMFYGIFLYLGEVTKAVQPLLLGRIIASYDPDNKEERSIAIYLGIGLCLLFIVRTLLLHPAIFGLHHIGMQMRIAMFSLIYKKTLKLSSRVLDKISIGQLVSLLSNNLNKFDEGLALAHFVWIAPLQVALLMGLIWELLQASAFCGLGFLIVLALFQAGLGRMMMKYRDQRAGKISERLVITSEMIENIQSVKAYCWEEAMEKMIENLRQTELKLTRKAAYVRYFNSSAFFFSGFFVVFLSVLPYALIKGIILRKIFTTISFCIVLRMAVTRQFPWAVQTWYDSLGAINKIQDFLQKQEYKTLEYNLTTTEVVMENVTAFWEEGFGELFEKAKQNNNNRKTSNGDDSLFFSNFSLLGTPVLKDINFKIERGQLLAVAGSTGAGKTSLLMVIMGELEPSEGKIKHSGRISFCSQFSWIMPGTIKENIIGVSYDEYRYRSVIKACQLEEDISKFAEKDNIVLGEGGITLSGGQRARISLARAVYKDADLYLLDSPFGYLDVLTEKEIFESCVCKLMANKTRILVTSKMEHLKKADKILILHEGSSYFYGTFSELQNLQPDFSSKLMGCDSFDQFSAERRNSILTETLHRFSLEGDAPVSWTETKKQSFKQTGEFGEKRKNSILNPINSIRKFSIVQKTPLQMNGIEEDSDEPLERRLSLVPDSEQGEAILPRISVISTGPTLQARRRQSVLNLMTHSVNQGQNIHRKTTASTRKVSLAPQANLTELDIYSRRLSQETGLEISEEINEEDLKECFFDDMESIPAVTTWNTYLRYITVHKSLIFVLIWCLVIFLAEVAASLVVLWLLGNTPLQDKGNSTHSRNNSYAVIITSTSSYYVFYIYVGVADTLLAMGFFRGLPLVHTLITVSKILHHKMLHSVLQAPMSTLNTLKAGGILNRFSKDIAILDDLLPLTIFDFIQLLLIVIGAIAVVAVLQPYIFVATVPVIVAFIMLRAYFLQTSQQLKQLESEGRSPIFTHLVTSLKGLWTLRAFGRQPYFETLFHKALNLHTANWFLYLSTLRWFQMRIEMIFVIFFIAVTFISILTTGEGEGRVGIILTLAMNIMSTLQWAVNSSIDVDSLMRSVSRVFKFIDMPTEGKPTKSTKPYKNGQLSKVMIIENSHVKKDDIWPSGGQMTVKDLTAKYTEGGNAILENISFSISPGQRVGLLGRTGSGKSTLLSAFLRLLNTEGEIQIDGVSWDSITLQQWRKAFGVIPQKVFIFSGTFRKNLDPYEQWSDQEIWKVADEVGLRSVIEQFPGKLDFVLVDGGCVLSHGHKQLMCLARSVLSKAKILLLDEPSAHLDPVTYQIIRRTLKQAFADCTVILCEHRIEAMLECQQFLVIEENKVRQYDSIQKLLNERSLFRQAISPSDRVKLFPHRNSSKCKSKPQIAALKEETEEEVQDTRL

Protocol: The method measures the effect of over-night compound incubation on F508del-CFTR cell surface expression in a recombinant U2OS cell line (DiscoveRx, #93-0987C3). This cell line is engineered to co-express (i) human F508del-CFTR tagged with a Prolink (PK=short ß-galactosidase fragment) and (ii) the remainder of the ß-galactosidase enzyme (Enzyme Acceptor; EA) localized to the plasma membrane. Incubation with compounds that increase PK-tagged F508del-CFTR at the plasma membrane will lead to complementation of the EA fragment to form a functional ß-galactosidase enzyme which is quantified by a chemiluminescence reaction.
The cells are incubated for 5h in the incubator before the addition of 5 μl/well of compound dilution series (5× working stocks in full medium). […] The cells are co-incubated with the compounds for 16h in the incubator at 37° C., 5% CO2. The next day, the cell plates are incubated for 2h at RT in the dark. […] Concentration-response curves are generated using compound-intrinsic maximal efficacy as upper plateau, and from these CRCs compound-intrinsic EC50 values are determined.
The calculated EC50 values may fluctuate depending on the daily assay performance. […] EC50 values from several measurements are given as geomean values. The calculated Emax values may fluctuate depending on the daily assay performance. […] Emax values from several measurements are given as arithmetic mean values.

Consider `COc1cc2c(cc1OC)C(=O)N[C@H](C(=O)NCCc1ccc3c(c1)OCO3)CC(=O)N(C)[C@@H](CC(C)C)C(=O)N(CCC1CCCCC1)CC(=O)N[C@H](Cc1ccccc1)CO2` [Example 585, (3R,9S,13S)-N-(2-(benzo[d][1,3]dioxol-5-yl)ethyl)-3-benzyl-7-(2-cyclohexylethyl)-9-isobutyl-17,18-dimethoxy-10-methyl-5,8,11,15-tetraoxo-2,3,4,5,6,7,8,9,10,11,12,13,14,15-tetradecahydrobenzo[p][1]oxa[4,7,10,14]tetraazacycloheptadecine-13-carboxamide], for which the concentration giving a half-maximal response (EC50) was 0.176 µM and the Emax came out at 168%.

On to `COc1cccc(CCNC(=O)[C@@H]2CC(=O)N(C)[C@@H](CC(C)C)C(=O)N(CCC3CCCCC3)CC(=O)N[C@H](Cc3ccccc3)COc3cc(OC)c(OC)cc3C(=O)N2)c1` [Example 586, (3R,9S,13S)-3-benzyl-7-(2-cyclohexylethyl)-9-isobutyl-17,18-dimethoxy-N-(3-methoxyphenethyl)-10-methyl-5,8,11,15-tetraoxo-2,3,4,5,6,7,8,9,10,11,12,13,14,15-tetradecahydrobenzo[p][1]oxa[4,7,10,14]tetraazacycloheptadecine-13-carboxamide], for which the half-maximal effective concentration (EC50) was found to be 0.221 µM and the Emax turned out to be 165%.

In the case of `COc1cccc(CCNC(=O)[C@@H]2CC(=O)N(C)[C@@H](CC(C)C)C(=O)N3CCCC[C@@H]3C(=O)N[C@H](Cc3ccccc3)COc3ccc(OC)cc3C(=O)N2)c1` [Example 587, (7S,11S,20R,22aR)-20-benzyl-7-isobutyl-15-methoxy-N-(3-methoxyphenethyl)-8-methyl-6,9,13,22-tetraoxo-1,3,4,6,7,8,9,10,11,12,13,19,20,21,22,22a-hexadecahydro-2H-benzo[p]pyrido[2,1-f][1]oxa[4,7,10,14]tetraazacycloheptadecine-11-carboxamide], the EC50 is 0.414 µM and the Emax is 106%.

As to `COc1cccc(CCNC(=O)[C@@H]2CC(=O)N(C)[C@@H](CC(C)C)C(=O)N3CCOC[C@@H]3C(=O)N[C@H](Cc3ccccc3)COc3ccc(OC)cc3C(=O)N2)c1` [Example 588, (7S,11S,20R,22aR)-20-benzyl-7-isobutyl-15-methoxy-N-(3-methoxyphenethyl)-8-methyl-6,9,13,22-tetraoxo-1,3,4,6,7,8,9,10,11,12,13,19,20,21,22,22a-hexadecahydrobenzo[p][1,4]oxazino[3,4-f][1]oxa[4,7,10,14]tetraazacycloheptadecine-11-carboxamide], the EC50 stood at 0.65 µM and the Emax stood at 102%.

As for `CC(C)C[C@H]1C(=O)N(CCC2CCCCC2)CC(=O)N[C@H](Cc2ccccc2)COc2ccncc2C(=O)N[C@H](C(=O)NCCc2ccc3c(c2)OCO3)CC(=O)N1C` [Example 589, (3R,9S,13S)-N-(2-(benzo[d][1,3]dioxol-5-yl)ethyl)-3-benzyl-7-(2-cyclohexylethyl)-9-isobutyl-10-methyl-5,8,11,15-tetraoxo-2,3,4,5,6,7,8,9,10,11,12,13,14,15-tetradecahydropyrido[3,4-p][1]oxa[4,7,10,14]tetraazacycloheptadecine-13-carboxamide], the EC50 turned out to be 0.298 µM and the Emax is 160%.

For `COc1cccc(CCNC(=O)[C@@H]2CC(=O)N(C)[C@@H](CC(C)C)C(=O)N(CCC3CCCCC3)CC(=O)N[C@H](Cc3ccccc3)COc3ccncc3C(=O)N2)c1` [Example 590, (3R,9S,13S)-3-benzyl-7-(2-cyclohexylethyl)-9-isobutyl-N-(3-methoxyphenethyl)-10-methyl-5,8,11,15-tetraoxo-2,3,4,5,6,7,8,9,10,11,12,13,14,15-tetradecahydropyrido[3,4-p][1]oxa[4,7,10,14]tetraazacycloheptadecine-13-carboxamide], the EC50 came out at 0.362 µM and the maximal response (Emax) worked out at 201%.

In the case of `COc1cccc(CCNC(=O)[C@@H]2CC(=O)N(C)[C@@H](CC(C)C)C(=O)N3CCCC[C@@H]3C(=O)N[C@H](Cc3ccccc3)COc3cccc(OC)c3C(=O)N2)c1` [Example 591, (7S,11S,20R,22aR)-20-benzyl-7-isobutyl-14-methoxy-N-(3-methoxyphenethyl)-8-methyl-6,9,13,22-tetraoxo-1,3,4,6,7,8,9,10,11,12,13,19,20,21,22,22a-hexadecahydro-2H-benzo[p]pyrido[2,1-f][1]oxa[4,7,10,14]tetraazacycloheptadecine-11-carboxamide], the EC50 was 0.341 µM and the Emax was 259%.

With `CC(C)C[C@H]1C(=O)N2CCCC[C@H]2C(=O)N[C@H](Cc2ccccc2)COc2ccncc2C(=O)N[C@H](C(=O)NCCc2ccc3c(c2)OCC3)CC(=O)N1C` [Example 592, (7S,11S,17aS,20R)-20-benzyl-N-(2-(2,3-dihydrobenzofuran-6-yl)ethyl)-11-isobutyl-10-methyl-5,9,12,18-tetraoxo-5,6,7,8,9,10,11,12,15,16,17,17a,18,19,20,21-hexadecahydro-14H-dipyrido[2,1-f:3′,4′-p][1]oxa[4,7,10,14]tetraazacycloheptadecine-7-carboxamide], the concentration giving a half-maximal response (EC50) was 0.881 µM and the Emax worked out at 119%.

Take `CC(C)C[C@H]1C(=O)N2CCCC[C@@H]2C(=O)N[C@H](Cc2ccccc2)COc2ccncc2C(=O)N[C@H](C(=O)NCCc2ccc3c(c2)OCC3)CC(=O)N1C` [Example 593, (7S,11S,17aR,20R)-20-benzyl-N-(2-(2,3-dihydrobenzofuran-6-yl)ethyl)-11-isobutyl-10-methyl-5,9,12,18-tetraoxo-5,6,7,8,9,10,11,12,15,16,17,17a,18,19,20,21-hexadecahydro-14H-dipyrido[2,1-f:3′,4′-p][1]oxa[4,7,10,14]tetraazacycloheptadecine-7-carboxamide]: the EC50 came to 0.614 µM and the Emax amounted to 190%.

`CC(C)C[C@H]1C(=O)N2CCCC[C@@H]2C(=O)N[C@H](Cc2ccccc2)COc2ccncc2C(=O)N[C@H](C(=O)NCCc2ccc3c(c2)OCCO3)CC(=O)N1C` [Example 594, (7S,11S,17aR,20R)-20-benzyl-N-(2-(2,3-dihydrobenzo[b][1,4]dioxin-6-yl)ethyl)-11-isobutyl-10-methyl-5,9,12,18-tetraoxo-5,6,7,8,9,10,11,12,15,16,17,17a,18,19,20,21-hexadecahydro-14H-dipyrido[2,1-f:3′,4′-p][1]oxa[4,7,10,14]tetraazacycloheptadecine-7-carboxamide]: the EC50 was 0.81 µM and the Emax came to 171%.

Regarding `COc1cccc(CCNC(=O)[C@@H]2CC(=O)N(C)[C@@H](CC(C)C)C(=O)N(C)CC(=O)N[C@H](Cc3ccccc3)COc3ccc4ccccc4c3C(=O)N2)c1` [Example 595, (3S,7S,13R)-13-benzyl-7-isobutyl-N-(3-methoxyphenethyl)-6,9-dimethyl-1,5,8,11-tetraoxo-1,2,3,4,5,6,7,8,9,10,11,12,13,14-tetradecahydronaphtho[1,2-p][1]oxa[4,7,10,14]tetraazacycloheptadecine-3-carboxamide], the concentration for a half-maximal effect (EC50) was 0.332 µM and the Emax worked out at 233%.

Regarding `COc1cc2c(cc1OC)C(=O)N[C@H](C(=O)NCCc1ccc3c(c1)OCCC3)CC(=O)N(C)[C@@H](CC(C)C)C(=O)N(CCC1CCCCC1)CC(=O)N[C@H](Cc1ccccc1)CO2` [Example 596, (3R,9S,13S)-3-benzyl-N-(2-(chroman-7-yl)ethyl)-7-(2-cyclohexylethyl)-9-isobutyl-17,18-dimethoxy-10-methyl-5,8,11,15-tetraoxo-2,3,4,5,6,7,8,9,10,11,12,13,14,15-tetradecahydrobenzo[p][1]oxa[4,7,10,14]tetraazacycloheptadecine-13-carboxamide], the EC50 is 0.167 µM and the Emax came to 195%.

`COc1cc2c(cc1OC)C(=O)N[C@H](C(=O)NCCc1ccc3c(c1)OCC3)CC(=O)N(C)[C@@H](CC(C)C)C(=O)N(CCC1CCCCC1)CC(=O)N[C@H](Cc1ccccc1)CO2` [Example 597, (3R,9S,13S)-3-benzyl-7-(2-cyclohexylethyl)-N-(2-(2,3-dihydrobenzofuran-6-yl)ethyl)-9-isobutyl-17,18-dimethoxy-10-methyl-5,8,11,15-tetraoxo-2,3,4,5,6,7,8,9,10,11,12,13,14,15-tetradecahydrobenzo[p][1]oxa[4,7,10,14]tetraazacycloheptadecine-13-carboxamide]: the EC50 was 0.168 µM and the maximal effect (Emax) worked out at 211%.

`COc1cccc(CCNC(=O)[C@@H]2CC(=O)N(C)[C@@H](CC(C)C)C(=O)N(C)CC(=O)N[C@H](Cc3ccccc3)COc3ccc4nc(C)oc4c3C(=O)N2)c1` [Example 598, (8R,14S,18S)-8-benzyl-14-isobutyl-N-(3-methoxyphenethyl)-2,12,15-trimethyl-10,13,16,20-tetraoxo-7,8,9,10,11,12,13,14,15,16,17,18,19,20-tetradecahydrooxazolo[4′,5′:5,6]benzo[1,2-p][1]oxa[4,7,10,14]tetraazacycloheptadecine-18-carboxamide]: the 50% effective concentration (EC50) was determined as 0.759 µM and the maximal response (Emax) turned out to be 312%.

On to `CC(C)C[C@H]1C(=O)N(CCC2CCCCC2)CC(=O)N[C@H](Cc2ccccc2)COc2ccc3ccccc3c2C(=O)N[C@H](C(=O)NCCc2ccc3c(c2)OCCC3)CC(=O)N1C` [Example 599, (3S,7S,13R)-13-benzyl-N-(2-(chroman-7-yl)ethyl)-9-(2-cyclohexylethyl)-7-isobutyl-6-methyl-1,5,8,11-tetraoxo-1,2,3,4,5,6,7,8,9,10,11,12,13,14-tetradecahydronaphtho[1,2-p][1]oxa[4,7,10,14]tetraazacycloheptadecine-3-carboxamide], for which the EC50 came to 0.151 µM and the Emax was determined as 299%.

Regarding `CC(C)C[C@H]1C(=O)N(CCC2CCCCC2)CC(=O)N[C@H](Cc2ccccc2)COc2ccc3ccccc3c2C(=O)N[C@H](C(=O)NCCc2ccc3c(c2)OCC3)CC(=O)N1C` [Example 600, (3S,7S,13R)-13-benzyl-9-(2-cyclohexylethyl)-N-(2-(2,3-dihydrobenzofuran-6-yl)ethyl)-7-isobutyl-6-methyl-1,5,8,11-tetraoxo-1,2,3,4,5,6,7,8,9,10,11,12,13,14-tetradecahydronaphtho[1,2-p][1]oxa[4,7,10,14]tetraazacycloheptadecine-3-carboxamide], the EC50 worked out at 0.097 µM and the Emax was determined as 286%.

(Values after patent US20240208992A1, “MACROCYCLES AS CFTR MODULATORS” (Idorsia Pharmaceuticals Ltd, priority 2021, published 2024).)
